# According to PubChem BioAssay AID330 (DTP/NCI, 2004):
# Several values for one entry are separate records, joined by “and”; a condition that tells them apart may be missing. Identical values can stand only once. Toxic doses and inconclusive results are not listed. Peptide text beside a SMILES is read from it. * marks the point of attachment. Cbz = O=C(OCc1ccccc1)*; OBn = c1ccc(CO*)cc1
# System: P388 leukemia ip, CD2F1 mice, survival T/C
# Assay: NCI In Vivo Anticancer Drug Screen. Data for tumor model P388 Leukemia (intraperitoneal) in CD2F1 (CDF1) mice
# Conditions: endpoint: median survival time, higher = longer survival
# Summary of the method: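 Mice carrying the transplanted tumor received test compound or vehicle. Survival was recorded in each group, and the value is the treated-group measurement divided by that of the vehicle-treated control group.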
# [1] = dose: 60.0 mg/kg/injection, schedule: Q01DX005 (ip), vehicle: saline with Tween-80
# [2] = dose: 120.0 mg/kg/injection, schedule: Q01DX005 (ip), vehicle: saline with Tween-80
# [3] = dose: 240.0 mg/kg/injection, schedule: Q01DX005 (ip), vehicle: saline with Tween-80
# [4] = dose: 50.0 mg/kg/injection, schedule: Q01DX009 (ip), vehicle: saline with Tween-80
# [5] = dose: 50.0 mg/kg/injection, schedule: Q01DX009 (ip), vehicle: saline
# [6] = dose: 50.0 mg/kg/injection, schedule: Q01DX005 (ip), vehicle: Klucel (hydroxypropylcellulose) (HPC)
# [7] = dose: 100.0 mg/kg/injection, schedule: Q01DX005 (ip), vehicle: Klucel (hydroxypropylcellulose) (HPC)
# [8] = dose: 100.0 mg/kg/injection, schedule: Q01DX009 (ip), vehicle: saline with Tween-80
# [9] = dose: 200.0 mg/kg/injection, schedule: Q01DX009 (ip), vehicle: saline with Tween-80
# [10] = dose: 12.5 mg/kg/injection, schedule: Q01DX005 (ip), vehicle: saline with Tween-80
# [11] = dose: 25.0 mg/kg/injection, schedule: Q01DX005 (ip), vehicle: saline with Tween-80
# [12] = dose: 50.0 mg/kg/injection, schedule: Q01DX005 (ip), vehicle: saline with Tween-80
# [13] = dose: 200.0 mg/kg/injection, schedule: Q01DX005 (ip), vehicle: saline with Tween-80
smiles,measurement,setting,value
Clc1c(-c2ccccc2)oc2nc3ccccc3nc12,T/C,[1],116 % of control
same,T/C,[2],110 % of control
same,T/C,[3],111 % of control
O=C(O)c1cc(N=Nc2ccc(-c3ccc(N=Nc4c(S(=O)(=O)O)cc5cc(Nc6ccccc6)ccc5c4O)cc3)cc2)ccc1O,T/C,"dose: 50.0 mg/kg/injection, schedule: Q01DX005 (ip), vehicle: saline",107 % of control
same,T/C,"dose: 100.0 mg/kg/injection, schedule: Q01DX005 (ip), vehicle: saline",114 % of control
same,T/C,"dose: 200.0 mg/kg/injection, schedule: Q01DX005 (ip), vehicle: saline",112 % of control
COc1cc(NS(=O)(=O)c2ccc(NC(C)c3ccc4cccnc4c3O)cc2)nc(OC)n1 (configuration not stated),T/C,[1],98 % of control
same,T/C,[2],99 % of control
same,T/C,[3],96 % of control
Cc1c2cnccc2c(C)c2c1c1ccccc1n2CC1CO1 (configuration not stated),T/C,"dose: 6.25 mg/kg/injection, schedule: Q01DX009 (ip), vehicle: saline with Tween-80",155 % of control
same,T/C,"dose: 8.0 mg/kg/injection, schedule: Q01DX009 (ip), vehicle: Klucel (hydroxypropylcellulose) (HPC)",111 % of control
same,T/C,"dose: 11.0 mg/kg/injection, schedule: Q01DX009 (ip), vehicle: saline with Tween-80",158 % of control
same,T/C,"dose: 12.5 mg/kg/injection, schedule: Q01DX009 (ip), vehicle: saline with Tween-80",152 % of control
same,T/C,"dose: 16.0 mg/kg/injection, schedule: Q04DX003 (ip), vehicle: Klucel (hydroxypropylcellulose) (HPC)",122 % of control
same,T/C,"dose: 16.5 mg/kg/injection, schedule: Q01DX009 (ip), vehicle: saline with Tween-80",171 % of control
same,T/C,"dose: 25.0 mg/kg/injection, schedule: Q01DX009 (ip), vehicle: saline with Tween-80",160 % of control and 168 % of control
same,T/C,[4],88 % of control
same,T/C,"dose: 128.0 mg/kg/injection, schedule: Q04DX003 (ip), vehicle: Klucel (hydroxypropylcellulose) (HPC)",159 % of control
C[n+]1c2ccccc2c(N=[N+]=[N-])c2ccccc21,T/C,"dose: 6.25 mg/kg/injection, schedule: Q01DX009 (ip), vehicle: saline",100 % of control
same,T/C,"dose: 12.5 mg/kg/injection, schedule: Q01DX009 (ip), vehicle: saline",98 % of control
same,T/C,"dose: 25.0 mg/kg/injection, schedule: Q01DX009 (ip), vehicle: saline",105 % of control
same,T/C,[5],109 % of control
CCNC(=O)/N=c1/sc([N+](=O)[O-])cn1CC(=O)N1CCCCC1,T/C,"dose: 100.0 mg/kg/injection, schedule: Q04DX002 (ip), vehicle: Klucel (hydroxypropylcellulose) (HPC)",100 % of control
same,T/C,"dose: 200.0 mg/kg/injection, schedule: Q04DX002 (ip), vehicle: Klucel (hydroxypropylcellulose) (HPC)",99 % of control
same,T/C,"dose: 400.0 mg/kg/injection, schedule: Q04DX002 (ip), vehicle: Klucel (hydroxypropylcellulose) (HPC)",98 % of control
CN(NC1OC(=O)c2ccccc21)c1ccc(C(F)(F)F)cc1[N+](=O)[O-] (configuration not stated),T/C,"dose: 60.0 mg/kg/injection, schedule: Q01DX005 (ip), vehicle: Klucel (hydroxypropylcellulose) (HPC)",95 % of control
same,T/C,"dose: 120.0 mg/kg/injection, schedule: Q01DX005 (ip), vehicle: Klucel (hydroxypropylcellulose) (HPC)",98 % of control
same,T/C,"dose: 240.0 mg/kg/injection, schedule: Q01DX005 (ip), vehicle: Klucel (hydroxypropylcellulose) (HPC)",100 % of control
N#CC(Cc1ccccc1)(c1ccccc1)c1ccccc1,T/C,"dose: 50.0 mg/kg/injection, schedule: Q01DX009 (ip), vehicle: Klucel (hydroxypropylcellulose) (HPC)",101 % of control
same,T/C,"dose: 100.0 mg/kg/injection, schedule: Q01DX009 (ip), vehicle: Klucel (hydroxypropylcellulose) (HPC)",96 % of control
same,T/C,"dose: 200.0 mg/kg/injection, schedule: Q01DX009 (ip), vehicle: Klucel (hydroxypropylcellulose) (HPC)",93 % of control
same,T/C,"dose: 400.0 mg/kg/injection, schedule: Q01DX009 (ip), vehicle: Klucel (hydroxypropylcellulose) (HPC)",93 % of control
COc1ccc(N=c2nc3n4c(c(Cl)cc(Cl)c4n2)NC(C(Cl)(Cl)Cl)=N3)cc1,T/C,"dose: 60.0 mg/kg/injection, schedule: Q01DX005 (ip), vehicle: Klucel + Tween-80",93 % of control
same,T/C,"dose: 120.0 mg/kg/injection, schedule: Q01DX005 (ip), vehicle: Klucel + Tween-80",92 % of control
same,T/C,"dose: 240.0 mg/kg/injection, schedule: Q01DX005 (ip), vehicle: Klucel + Tween-80",96 % of control
Cc1cc[n+]2cc(-c3ccc(/C=N/N=C(N)N)cc3)n(C)c2c1,T/C,"dose: 1.56 mg/kg/injection, schedule: Q01DX005 (ip), vehicle: Klucel (hydroxypropylcellulose) (HPC)",100 % of control
same,T/C,"dose: 3.12 mg/kg/injection, schedule: Q01DX005 (ip), vehicle: Klucel (hydroxypropylcellulose) (HPC)",103 % of control
same,T/C,"dose: 6.25 mg/kg/injection, schedule: Q01DX005 (ip), vehicle: Klucel (hydroxypropylcellulose) (HPC)",102 % of control and 107 % of control
C1CCCCC2=NCCC(CCCC1)C2 (configuration not stated),T/C,[6],103 % of control
same,T/C,[7],107 % of control
N#CC1CPCCC1N (configuration not stated),T/C,[4],102 % of control
same,T/C,[8],106 % of control
same,T/C,[9],114 % of control
NC(=O)c1cc2c3ccccc3ncc2c2ccccc12,T/C,"dose: 100.0 mg/kg/injection, schedule: Q01DX001 (ip), vehicle: saline with Tween-80",100 % of control
same,T/C,"dose: 200.0 mg/kg/injection, schedule: Q01DX001 (ip), vehicle: saline with Tween-80",100 % of control
same,T/C,"dose: 400.0 mg/kg/injection, schedule: Q01DX001 (ip), vehicle: saline with Tween-80",100 % of control
CC1(C)CC2C3=CCC4C5(C)CCC(O)C(C)(C)C5CCC4(C)C3(C)CCC2(CO)C(O)C1O (configuration not stated),T/C,"dose: 3.25 mg/kg/injection, schedule: Q01DX005 (ip), vehicle: Klucel (hydroxypropylcellulose) (HPC)",99 % of control
same,T/C,"dose: 6.5 mg/kg/injection, schedule: Q01DX005 (ip), vehicle: Klucel (hydroxypropylcellulose) (HPC)",99 % of control
same,T/C,"dose: 13.0 mg/kg/injection, schedule: Q01DX005 (ip), vehicle: Klucel (hydroxypropylcellulose) (HPC)",99 % of control
same,T/C,"dose: 26.0 mg/kg/injection, schedule: Q01DX005 (ip), vehicle: Klucel (hydroxypropylcellulose) (HPC)",98 % of control
[Cl][Rh][Cl].[NH-]c1nc(-c2ccccc2)cs1.[NH-]c1nc(-c2ccccc2)cs1.[NH-]c1nc(-c2ccccc2)cs1.[NH-]c1nc(-c2ccccc2)cs1,T/C,"dose: 100.0 mg/kg/injection, schedule: Q01DX001 (ip), vehicle: DMSO",97 % of control
same,T/C,"dose: 200.0 mg/kg/injection, schedule: Q01DX001 (ip), vehicle: DMSO",94 % of control
same,T/C,"dose: 400.0 mg/kg/injection, schedule: Q01DX001 (ip), vehicle: DMSO",98 % of control
N#CC1=C(C#N)CC2C(C1)OC1CC(C#N)=C(C#N)CC12 (configuration not stated),T/C,[5],100 % of control
same,T/C,"dose: 100.0 mg/kg/injection, schedule: Q01DX009 (ip), vehicle: saline",101 % of control
same,T/C,"dose: 200.0 mg/kg/injection, schedule: Q01DX009 (ip), vehicle: saline",100 % of control
CC(C)C(NC(=O)C(Cc1ccccc1)NC(=O)OCc1ccccc1)C(=O)OCc1ccccc1 (stereo not drawn) (Cbz-Phe-Val-OBn; configuration not given here),T/C,[10],93 % of control
same,T/C,[11],100 % of control
same,T/C,[12],91 % of control and 97 % of control
same,T/C,[13],92 % of control
O=[N+]([O-])c1nc(-[n+]2ccccc2)[n-]c1Br,T/C,"dose: 100.0 mg/kg/injection, schedule: Q04DX003 (ip), vehicle: saline",98 % of control
same,T/C,"dose: 200.0 mg/kg/injection, schedule: Q04DX003 (ip), vehicle: saline",100 % of control
same,T/C,"dose: 400.0 mg/kg/injection, schedule: Q04DX003 (ip), vehicle: saline",95 % of control
CC1(C)CC(Nc2ccccc2)=CC(N2CCOCC2)=N1,T/C,[6],103 % of control
same,T/C,[7],100 % of control
CCOc1cccc2c1C(O)(C#Cc1ccccc1)c1cccc(OCC)c1C2(O)C#Cc1ccccc1 (configuration not stated),T/C,"dose: 100.0 mg/kg/injection, schedule: Q04DX002 (ip), vehicle: saline with Tween-80",87 % of control
same,T/C,"dose: 200.0 mg/kg/injection, schedule: Q04DX002 (ip), vehicle: saline with Tween-80",87 % of control
same,T/C,"dose: 400.0 mg/kg/injection, schedule: Q04DX002 (ip), vehicle: saline with Tween-80",91 % of control
S=C(N/N=C(\c1ccccc1)c1ccccn1)SCc1ccccc1,T/C,[4],99 % of control
same,T/C,[8],90 % of control
same,T/C,[9],97 % of control
C#CC(C)(CC(C)C)OCCN(CC)CC (configuration not stated),T/C,"dose: 6.25 mg/kg/injection, schedule: Q01DX005 (ip), vehicle: saline with Tween-80",106 % of control
same,T/C,[10],104 % of control
same,T/C,[11],104 % of control
O=C(CSc1nc2ccccc2s1)NCCO,T/C,[12],97 % of control
same,T/C,"dose: 100.0 mg/kg/injection, schedule: Q01DX005 (ip), vehicle: saline with Tween-80",99 % of control
same,T/C,[13],97 % of control
